Results: US10239870B2, “Dopamine D3 receptor antagonists” (priority 2014, dated 2019)
Structures can show the parent of a compound that is named as a salt.

What was measured:
[1] = molecular target: hD2 recombinant receptor (human dopamine receptor type 2, long variant, CHO-Gα16-hD2L cells) (Homo sapiens (Human), UniProt P14416); assay: cell-based; conditions: D2 fpKi, functional pKi; antagonism of dopamine EC80 calcium response (FLIPR)
[2] = molecular target: hD2 recombinant receptor (human dopamine receptor type 2, long variant, CHO-Gα16-hD2L membranes) (Homo sapiens (Human), UniProt P14416); conditions: displacement of 0.08 nM [3H]-Spiperone

Ki [1] [nM]	D2 pKi [2]	Compound
19.1	–	Cc1ncoc1-c1nnc(SCCCN2CCC[C@]3(C[C@H]3c3ccc(C(F)(F)F)cc3)C2)n1C (racemic) [Example 310, (1R,3S/1S,3R)-5-(3-{[4-methyl-5-(4-methyl-1,3-oxazol-5-yl)-4H-1,2,4-triazol-3-yl]sulfanyl}propyl)-1-[4-(trifluoromethyl)phenyl]-5-azaspiro[2.5]octane]
> 10000	–	Cn1c(SCCCN2CC[C@]3(CC3c3ccc(C(F)(F)F)cc3F)C2)nnc1C1CCOCC1 (single isomer, unassigned) [Example 71]
1260	–	Cn1c(SCCCN2CC[C@@]3(C[C@@H]3c3ccc(C(F)(F)F)cc3F)C2)nnc1C1CCOCC1 (single isomer, unassigned) [Example 74, (1S,3R or 1R,3S)-1-[2-fluoro-4-(trifluoromethyl)phenyl]-5-(3-{[4-methyl-5-(oxan-4-yl)-4H-1,2,4-triazol-3-yl]sulfanyl}propyl)-5-azaspiro[2.4]heptane hydrochloride]
> 10000	–	Cn1c(SCCCN2CC[C@]3(C[C@H]3c3ccc(C(F)(F)F)cc3F)C2)nnc1C1CCOCC1 (single isomer, unassigned) [Example 75, (1R,3S or 1S,3R)-1-[2-fluoro-4-(trifluoromethyl)phenyl]-5-(3-{[4-methyl-5-(oxan-4-yl)-4H-1,2,4-triazol-3-yl]sulfanyl}propyl)-5-azaspiro[2.4]heptane hydrochloride]
708	–	Cn1c(SCCCN2CC[C@]3(CC3c3ccc(C(F)(F)F)cc3F)C2)nnc1C1CCOCC1 (single isomer, unassigned) [Example 76]
363	–	Cn1c(SCCCN2CC[C@]3(C[C@@H]3c3ccc(C(F)(F)F)cc3F)C2)nnc1C1CCOCC1 (single isomer, unassigned) [Example 79, hydrochloride]
> 10000	–	Cn1c(SCCCN2CC[C@]3(C[C@@H]3c3ccccc3)C2)nnc1C1CCOCC1 (single isomer, unassigned) [Example 83, hydrochloride]
1170	–	CC(=O)N1CCC(c2nnc(SCCCN3CC[C@]4(C[C@@H]4c4ccc(C(F)(F)F)cc4)C3)n2C)CC1 (single isomer, unassigned) [Example 100]
1620	–	Cn1c(SCCCN2CC[C@]3(CC3c3ccc(C(F)(F)F)cc3)C2)nnc1N1CCOCC1 (single isomer, unassigned) [Example 114, hydrochloride]
97.7	–	Cn1c(SCCCN2CC[C@]3(CC3c3ccc(C(F)(F)F)cc3)C2)nnc1N1CCOCC1 (single isomer, unassigned) [Example 115]
871	–	Cn1c(CCCCN2CC[C@]3(C[C@@H]3c3ccc(C(F)(F)F)cc3F)C2)nnc1C1CCOCC1 (single isomer, unassigned) [Example 295, hydrochloride]
> 10000	–	Cn1c(CCCCN2CC[C@]3(C[C@H]3c3ccc(C(F)(F)F)cc3)C2)nnc1C1CCOCC1 (single isomer, unassigned) [Example 299, (1S,3S or 1R,3R)-5-{4-[4-methyl-5-(oxan-4-yl)-4H-1,2,4-triazol-3-yl]butyl}-1-[4-(trifluoromethyl)phenyl]-5-azaspiro[2.4]heptane hydrochloride]
> 10000	–	Cn1c(CCCCN2CC[C@@]3(C[C@@H]3c3ccc(C(F)(F)F)cc3)C2)nnc1C1CCOCC1 (single isomer, unassigned) [Example 300, (1R,3R or 1S,3S)-5-{4-[4-methyl-5-(oxan-4-yl)-4H-1,2,4-triazol-3-yl]butyl}-1-[4-(trifluoromethyl)phenyl]-5-azaspiro[2.4]heptane hydrochloride]
1120	–	Cc1ncoc1-c1nnc(SCCCN2CCC3(CC2)C[C@@H]3c2ccccc2)n1C (single isomer, unassigned) [Example 309, (1S or 1R)-6-(3-{[4-methyl-5-(4-methyl-1,3-oxazol-5-yl)-4H-1,2,4-triazol-3-yl]sulfanyl}propyl)-1-phenyl-6-azaspiro[2.5]octane hydrochloride]
2240	–	Cc1ncoc1-c1nnc(SCCCN2CCC3(CCC3c3ccccc3)C2)n1C (single isomer, unassigned) [Example 321, (1R,4S or 1S,4R or 1S,4S or 1R,4R)-6-(3-{[4-methyl-5-(4-methyl-1,3-oxazol-5-yl)-4H-1,2,4-triazol-3-yl]sulfanyl}propyl)-1-phenyl-6-azaspiro[3.4]octane hydrochloride]
> 10000	–	Cn1c(SCCCN2CC[C@]3(CC3c3ccccc3)C2)nnc1C1CCOCC1 (stereo partly drawn) [Example 80, (1R,3S/1S,3R)-5-(3-{[4-methyl-5-(oxan-4-yl)-4H-1,2,4-triazol-3-yl]-sulfanyl}propyl)-1-phenyl-5-azaspiro[2.4]heptane]
> 10000	–	Cn1c(SCCCN2CC[C@]3(CC3c3ccc(C(F)(F)F)nc3)C2)nnc1C1CCOCC1 (stereo partly drawn) [Example 84, (1R,3S/1S,3R)-5-(3-{[4-methyl-5-(oxan-4-yl)-4H-1,2,4-triazol-3-yl]sulfanyl}propyl)-1-[6-(trifluoromethyl)pyridin-3-yl]-5-azaspiro[2.4]heptane]
2240	–	CC(=O)N1CCC(c2nnc(SCCCN3CC[C@]4(C[C@@H]4c4ccc(C(F)(F)F)cc4)C3)n2C)CC1 [Example 99, 1-{4-[4-methyl-5-({3-[(1R,3S/1S,R3)-1-[4-(trifluoromethyl)phenyl]-5-azaspiro[2.4]heptan-5-yl]propyl}sulfanyl)-4H-1,2,4-triazol-3-yl]piperidin-1-yl}ethan-1-one]
81.3	–	Cn1c(SCCCN2CC[C@]3(CC3c3ccc(C(F)(F)F)cc3F)C2)nnc1-c1ccncn1 (stereo partly drawn) [Example 213, (1S,3S/1R,3R)-1-[2-fluoro-4-(trifluoromethyl)phenyl]-5-(3-{[4-methyl-5-(pyrimidin-4-yl)-4H-1,2,4-triazol-3-yl]sulfanyl}propyl)-5-azaspiro[2.4]heptane]
–	6.00	Cc1cnc(-c2nnc(SCCCN3CC[C@]4(CC4c4ccc(C(F)(F)F)cc4)C3)n2C)cn1 (stereo partly drawn) [Example 223, (1R,3S/1S,3R)-5-(3-{[4-methyl-5-(5-methylpyrazin-2-yl)-4H-1,2,4-triazol-3-yl]sulfanyl}propyl)-1-[4-(trifluoromethyl)phenyl]-5-azaspiro[2.4]heptane]
–	5.85	Cc1nccnc1-c1nnc(SCCCN2CC[C@]3(C[C@@H]3c3ccc(C(F)(F)F)cc3)C2)n1C [Example 224, (1R,3S/1S,3R)-5-(3-{[4-methyl-5-(3-methylpyrazin-2-yl)-4H-1,2,4-triazol-3-yl]sulfanyl}propyl)-1-[4-(trifluoromethyl)phenyl]-5-azaspiro[2.4]heptane]
–	6.33	Cn1c(SCCCN2CC[C@]3(C[C@@H]3c3ccc(C(F)(F)F)cc3)C2)nnc1-c1cnc(C(N)=O)cn1 [Example 228, 5-[4-methyl-5-({3-[(1R,3S)-1-[4-(trifluoromethyl)phenyl]-5-azaspiro[2.4]heptan-5-yl]propyl}sulfanyl)-4H-1,2,4-triazol-3-yl]pyrazine-2-carboxamide]
2340	–	Cn1c(SCCCN2CC[C@]3(C[C@@H]3c3ccc(C(F)(F)F)cc3)C2)nnc1-c1ccno1 [Example 229, (1R,3S/1S,3R)-5-(3-{[4-methyl-5-(1,2-oxazol-5-yl)-4H-1,2,4-triazol-3-yl]sulfanyl}propyl)-1-[4-(trifluoromethyl)phenyl]-5-azaspiro[2.4]heptane]
–	6.26	Cn1cccc1-c1nnc(SCCCN2CC[C@]3(CC3c3ccc(C(F)(F)F)cc3)C2)n1C (stereo partly drawn) [Example 258, (1R,3S/1S,3R)-5-(3-{[4-methyl-5-(1-methyl-1H-pyrrol-2-yl)-4H-1,2,4-triazol-3-yl]sulfanyl}propyl)-1-[4-(trifluoromethyl)phenyl]-5-azaspiro[2.4]heptane]
–	6.18	Cc1nnsc1-c1nnc(SCCCN2CC[C@]3(C[C@@H]3c3ccc(C(F)(F)F)cc3)C2)n1C.Cl [Example 262, (1R,3S)-5-(3-{[4-methyl-5-(4-methyl-1,2,3-thiadiazol-5-yl)-4H-1,2,4-triazol-3-yl]sulfanyl}propyl)-1-[4-(trifluoromethyl)phenyl]-5-azaspiro[2.4]heptane]
–	5.38	Cl.Cn1c(SCCCN2CC[C@]3(C[C@@H]3c3ccc(C(F)(F)F)cc3)C2)nnc1-c1cccn2cnnc12 [Example 267, (1R,3S)-5-{3-[(4-methyl-5-{[1,2,4]triazolo[4,3-a]pyridin-8-yl}-4H-1,2,4-triazol-3-yl)-sulfanyl]propyl}-1-[4-(trifluoromethyl)phenyl]-5-azaspiro[2.4]heptane]
–	5.80	Cl.Cn1c(SCCCN2CC[C@]3(C[C@@H]3c3ccc(C(F)(F)F)cc3)C2)nnc1-c1ccc2nncn2c1 [Example 268, (1R,3S)-5-{3-[(4-methyl-5-{[1,2,4]triazolo[4,3-a]pyridin-6-yl}-4H-1,2,4-triazol-3-yl)-sulfanyl]propyl}-1-[4-(trifluoromethyl)phenyl]-5-azaspiro[2.4]heptane]
–	6.04	Cn1c(SCCCN2CC[C@]3(C[C@@H]3c3ccc(C(F)(F)F)cc3F)C2)nnc1-c1ccn2cnnc2c1 [Example 270, (1S,3S)-1-[2-fluoro-4-(trifluoromethyl)phenyl]-5-{3-[(4-methyl-5-{[1,2,4]triazolo[4,3-a]pyridin-7-yl}-4H-1,2,4-triazol-3-yl)sulfanyl]propyl}-5-azaspiro[2.4]heptane]
–	5.91	Cc1nnc2ccc(-c3nnc(SCCCN4CC[C@]5(C[C@@H]5c5ccc(C(F)(F)F)cc5)C4)n3C)cn12 [Example 271, (1R,3S)-5-{3-[(4-methyl-5-{3-methyl-[1,2,4]triazolo[4,3-a]pyridin-6-yl}-4H-1,2,4-triazol-3-yl)sulfanyl]propyl}-1-[4-(trifluoromethyl)phenyl]-5-azaspiro[2.4]heptane]
–	6.52	Cl.Cn1c(SCCCN2CC[C@]3(C[C@@H]3c3ccc(C(F)(F)F)cc3)C2)nnc1-c1ccc(-c2nnco2)cc1 [Example 274, (1R,3S)-5-[3-({4-methyl-5-[4-(1,3,4-oxadiazol-2-yl)phenyl]-4H-1,2,4-triazol-3-yl}sulfanyl)propyl]-1-[4-(trifluoromethyl)phenyl]-5-azaspiro[2.4]heptane]
